Like-named read-outs stand apart in the source and are kept apart here.
Experiments:
human TLR7 = human TLR7 (Homo sapiens (Human), UniProt Q9NYK1); assay: TLR7 inhibition reporter assay (HEK-Blue cells, SEAP reporter, gardiquimod stimulation); format: cell-based
human TLR9 = human TLR9 (Homo sapiens (Human), UniProt Q9NR96); assay: TLR9 inhibition reporter assay (HEK-Blue cells, SEAP reporter, ODN2006 stimulation);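 further: compounds tested over 0.05 nM to 50 µM, 22 h incubation, inhibition taken as SEAP signal drop from agonist plus DMSO wells toward a known inhibitor control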
human TLR8 = human TLR8 (Homo sapiens (Human), UniProt Q9NR97); assay: TLR8 inhibition reporter assay (HEK-Blue cells, SEAP reporter, R848 stimulation);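 further: compounds tested from 0.05 nM to 50 µM, 22 h at 37 °C, SEAP measured with HEK-Blue Detection, inhibition relative to agonist plus DMSO versus a known inhibitor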
[1] = HEK-Blue cells overexpressing human TLR7, gardiquimod 7.5 μM
[2] = read-out: TLR9 IC50, HEK-Blue cells overexpressing human TLR9, ODN2006 5 nM
[3] = read-out: TLR8 IC50, HEK-Blue cells overexpressing human TLR8, R848 15.9 μM
[4] = HEK-Blue cells, gardiquimod 7.5 μM
[5] = read-out: TLR9 IC50, HEK-Blue cells, ODN2006 5 nM
[6] = read-out: TLR8 IC50, HEK-Blue cells, R848 15.9 μM

Sequence of human TLR7 (Q9NYK1 27-1049): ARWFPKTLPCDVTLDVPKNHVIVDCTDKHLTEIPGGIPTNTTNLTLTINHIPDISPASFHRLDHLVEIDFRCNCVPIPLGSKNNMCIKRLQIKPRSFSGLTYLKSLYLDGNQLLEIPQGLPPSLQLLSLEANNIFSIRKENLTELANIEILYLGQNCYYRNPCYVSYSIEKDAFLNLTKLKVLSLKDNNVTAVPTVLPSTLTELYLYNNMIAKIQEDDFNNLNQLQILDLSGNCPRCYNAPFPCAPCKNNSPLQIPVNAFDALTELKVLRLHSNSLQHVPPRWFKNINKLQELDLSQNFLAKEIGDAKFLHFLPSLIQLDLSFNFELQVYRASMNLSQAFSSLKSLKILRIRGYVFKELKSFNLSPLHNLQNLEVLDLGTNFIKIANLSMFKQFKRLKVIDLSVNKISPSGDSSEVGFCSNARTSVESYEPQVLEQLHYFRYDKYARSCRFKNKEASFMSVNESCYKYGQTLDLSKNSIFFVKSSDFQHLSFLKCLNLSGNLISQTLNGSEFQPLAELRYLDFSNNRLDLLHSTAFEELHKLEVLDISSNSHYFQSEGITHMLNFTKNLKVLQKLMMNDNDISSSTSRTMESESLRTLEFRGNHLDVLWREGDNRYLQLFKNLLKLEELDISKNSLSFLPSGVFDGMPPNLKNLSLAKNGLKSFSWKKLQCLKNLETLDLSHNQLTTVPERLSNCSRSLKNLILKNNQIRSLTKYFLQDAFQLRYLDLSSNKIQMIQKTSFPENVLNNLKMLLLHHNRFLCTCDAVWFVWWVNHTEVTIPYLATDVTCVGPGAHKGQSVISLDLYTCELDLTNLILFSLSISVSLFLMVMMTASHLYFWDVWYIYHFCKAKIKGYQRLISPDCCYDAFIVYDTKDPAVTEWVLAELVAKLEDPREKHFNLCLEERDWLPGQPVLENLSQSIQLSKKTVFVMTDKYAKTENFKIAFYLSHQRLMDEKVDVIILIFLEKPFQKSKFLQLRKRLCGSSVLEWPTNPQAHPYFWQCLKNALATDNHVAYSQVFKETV
Sequence of human TLR8 (Q9NR97 27-1041): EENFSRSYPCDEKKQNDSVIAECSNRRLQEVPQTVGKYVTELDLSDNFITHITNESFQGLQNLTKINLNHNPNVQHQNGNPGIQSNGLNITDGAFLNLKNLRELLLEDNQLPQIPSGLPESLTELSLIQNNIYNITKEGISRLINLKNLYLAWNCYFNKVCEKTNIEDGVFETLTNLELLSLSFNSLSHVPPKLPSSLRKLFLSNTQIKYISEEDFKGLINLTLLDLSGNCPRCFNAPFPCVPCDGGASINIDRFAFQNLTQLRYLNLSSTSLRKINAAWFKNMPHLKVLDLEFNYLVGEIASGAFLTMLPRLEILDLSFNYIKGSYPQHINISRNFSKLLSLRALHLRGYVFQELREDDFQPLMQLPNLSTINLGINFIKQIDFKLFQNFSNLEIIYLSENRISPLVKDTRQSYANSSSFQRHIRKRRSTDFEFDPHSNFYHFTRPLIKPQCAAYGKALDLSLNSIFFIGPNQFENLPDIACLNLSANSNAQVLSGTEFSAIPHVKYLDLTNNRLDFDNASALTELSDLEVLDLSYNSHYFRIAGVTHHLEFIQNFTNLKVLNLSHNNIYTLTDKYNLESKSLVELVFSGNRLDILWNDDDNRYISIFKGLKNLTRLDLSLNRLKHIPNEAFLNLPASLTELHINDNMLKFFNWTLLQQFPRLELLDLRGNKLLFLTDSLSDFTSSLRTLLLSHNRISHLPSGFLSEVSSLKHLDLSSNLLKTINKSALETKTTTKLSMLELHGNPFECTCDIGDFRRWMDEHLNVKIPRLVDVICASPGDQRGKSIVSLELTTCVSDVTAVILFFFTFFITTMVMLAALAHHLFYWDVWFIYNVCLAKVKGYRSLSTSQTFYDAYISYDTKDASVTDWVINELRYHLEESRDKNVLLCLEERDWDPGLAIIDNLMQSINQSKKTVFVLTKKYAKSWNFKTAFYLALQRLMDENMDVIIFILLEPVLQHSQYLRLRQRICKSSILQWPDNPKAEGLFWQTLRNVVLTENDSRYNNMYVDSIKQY
Sequence of human TLR9 (Q9NR96 26-1032): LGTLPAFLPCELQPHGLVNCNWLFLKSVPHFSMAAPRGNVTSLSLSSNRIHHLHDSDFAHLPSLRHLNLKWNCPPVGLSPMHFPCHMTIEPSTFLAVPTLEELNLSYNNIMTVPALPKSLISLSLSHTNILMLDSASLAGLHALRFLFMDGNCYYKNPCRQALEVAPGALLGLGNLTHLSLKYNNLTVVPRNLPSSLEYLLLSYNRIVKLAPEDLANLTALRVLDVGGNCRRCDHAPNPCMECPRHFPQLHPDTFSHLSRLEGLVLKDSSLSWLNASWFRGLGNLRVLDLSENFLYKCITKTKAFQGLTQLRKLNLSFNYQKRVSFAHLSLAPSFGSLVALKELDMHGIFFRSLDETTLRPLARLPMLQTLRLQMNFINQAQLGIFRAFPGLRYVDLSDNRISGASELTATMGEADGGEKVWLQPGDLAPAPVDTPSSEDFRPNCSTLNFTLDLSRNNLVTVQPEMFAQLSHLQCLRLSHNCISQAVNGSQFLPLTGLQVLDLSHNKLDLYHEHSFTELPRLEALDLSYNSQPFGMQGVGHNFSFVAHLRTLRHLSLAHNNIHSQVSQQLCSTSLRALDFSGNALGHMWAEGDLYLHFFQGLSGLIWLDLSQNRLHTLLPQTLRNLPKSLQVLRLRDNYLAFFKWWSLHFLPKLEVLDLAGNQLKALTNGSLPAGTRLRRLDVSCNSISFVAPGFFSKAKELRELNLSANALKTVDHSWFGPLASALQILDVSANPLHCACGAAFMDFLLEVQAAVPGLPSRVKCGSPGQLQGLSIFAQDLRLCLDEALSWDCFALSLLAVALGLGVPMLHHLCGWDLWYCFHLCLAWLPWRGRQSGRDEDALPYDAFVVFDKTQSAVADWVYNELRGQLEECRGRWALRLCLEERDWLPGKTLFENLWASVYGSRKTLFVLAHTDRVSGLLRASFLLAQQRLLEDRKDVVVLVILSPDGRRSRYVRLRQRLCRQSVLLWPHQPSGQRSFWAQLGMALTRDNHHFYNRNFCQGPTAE

Row | SMILES | IC50 (human TLR7; [1]) | IC50 (human TLR9; [2]) | IC50 (human TLR8; [3]) | IC50 (human TLR7; [4]) | IC50 (human TLR9; [5]) | IC50 (human TLR8; [6]) | IC50 (human TLR9; TLR9 IC50, HEK-Blue cells overexpressing human TLR9, ODN2006 5 nM) | IC50 (human TLR8; TLR8 IC50, HEK-Blue cells overexpressing human TLR8, R848 15.9 μM)
1 | Cc1cc(-c2[nH]c3ccc(C4CCN(C(=O)Cn5ccc(C(F)(F)F)n5)CC4)cc3c2C(C)C)cc(C)n1 [Example 156, 1-(4-(2-(2,6-dimethylpyridin-4-yl)-3-isopropyl-1H-indol-5-yl)piperidin-1-yl)-2-(3-(trifluoromethyl)-1H-pyrazol-1-yl)ethan-1-one] | 29.9 nM | 18600 nM | 187 nM | – | – | – | – | –
2 | Cc1cc(-c2[nH]c3ccc(C4CCN(CC5(C)COC5)CC4)cc3c2C(C)C)c(C)cn1 [Example 872, 2-(2,5-dimethylpyridin-4-yl)-3-isopropyl-5-(1-((3-methyloxetan-3-yl)methyl)piperidin-4-yl)-1H-indole] | – | – | – | 20.6 nM | 2320 nM | 2.8 nM | – | –
3 | Cc1cc(-c2[nH]c3ccc(C4CCN(CC(=O)N5C[C@H](C(F)(F)F)C[C@@H]5CO)CC4)cc3c2C(C)C)cc(C)n1 [Example 301, 2-(4-(2-(2,6-dimethylpyridin-4-yl)-3-isopropyl-1H-indol-5-yl)piperidin-1-yl)-1-((2R,4R)-2-(hydroxymethyl)-4-(trifluoromethyl)pyrrolidin-1-yl)ethan-1-one] | 19.6 nM | 1580 nM | 118 nM | – | – | – | – | –
4 | Cc1cc(-c2[nH]c3cc(F)c(C4CCN(Cc5ncn(C)n5)CC4)cc3c2C(C)C)cc(C)n1 [Example 832, 2-(2,6-dimethylpyridin-4-yl)-6-fluoro-3-isopropyl-5-(1-((1-methyl-1H-1,2,4-triazol-3-yl)methyl)piperidin-4-yl)-1H-indole] | – | – | – | 6.2 nM | 3080 nM | 25.4 nM | – | –
5 | CCc1c(-c2cc(Cl)ncc2OC)[nH]c2ccc(C3CCN(C4CCN(CC(C)C)CC4)CC3)cc12 [Example 763, 2-(2-chloro-5-methoxypyridin-4-yl)-3-ethyl-5-(1′-isobutyl-[1,4′-bipiperidin]-4-yl)-1H-indole] | 4950 nM | 1900 nM | 514 nM | – | – | – | – | –
6 | Cc1cc(-c2[nH]c3ccc(C4CCN(Cc5cnc[nH]5)CC4)cc3c2C(C)C)c(N)cn1 [Example 823, 4-(5-(1-((1H-imidazol-5-yl)methyl)piperidin-4-yl)-3-isopropyl-1H-indol-2-yl)-6-methylpyridin-3-amine] | – | – | – | 36.2 nM | 400 nM | 7.6 nM | – | –
7 | CCc1c(-c2ccnc(C(=O)OC)c2)[nH]c2ccc(C3CCN(C4CCN(CC(C)C)CC4)CC3)cc12 [Example 762, methyl 4-(3-ethyl-5-(1′-isobutyl-[1,4′-bipiperidin]-4-yl)-1H-indol-2-yl)picolinate] | 708 nM | 223 nM | 14.3 nM | – | – | – | – | –
8 | CCc1c(-c2ccnc(C)c2)[nH]c2ccc(C3CCN(C(=O)C4CCNCC4)CC3)cc12 [Example 625, (4-(3-ethyl-2-(2-methylpyridin-4-yl)-1H-indol-5-yl)piperidin-1-yl)(piperidin-4-yl)methanone] | 84.5 nM | 177 nM | 83.5 nM | – | – | – | – | –
9 | Cc1cc(-c2[nH]c3ccc(C4CCN(CC(=O)N(C(C)C)C(C)C)CC4)cc3c2C(C)C)cc(C)n1 [Example 253, 2-(4-(2-(2,6-dimethylpyridin-4-yl)-3-isopropyl-1H-indol-5-yl)piperidin-1-yl)-N,N-diisopropylacetamide] | 19.7 nM | 1340 nM | 37.1 nM | – | – | – | – | –
10 | Cc1cc(-c2[nH]c3ccc(C4CCN(C(=O)C(C)(C)C)CC4)cc3c2C(C)C)ccn1 [Example 601, 1-(4-(3-isopropyl-2-(2-methylpyridin-4-yl)-1H-indol-5-yl)piperidin-1-yl)-2,2-dimethylpropan-1-one] | 99.2 nM | 34100 nM | 385 nM | – | – | – | – | –
11 | Cc1cc(-c2[nH]c3ccc(C4CCN(C(=O)C5CC(=O)N(C)C5)CC4)cc3c2C(C)C)ccn1 (stereo not drawn) [Example 566, 4-(4-(3-isopropyl-2-(2-methylpyridin-4-yl)-1H-indol-5-yl)piperidine-1-carbonyl)-1-methylpyrrolidin-2-one] | 78.8 nM | > 50000 nM | 118 nM | – | – | – | – | –
12 | CNCCN1CCC(c2ccc3[nH]c(-c4ccncc4OC)c(C)c3c2)CC1 [Example 754, 2-(4-(2-(3-methoxypyridin-4-yl)-3-methyl-1H-indol-5-yl)piperidin-1-yl)-N-methylethan-1-amine] | 5860 nM | 325 nM | 27.5 nM | – | – | – | – | –
13 | Cc1cc(-c2[nH]c3ccc(C4CCN(CC(=O)NCCC(C)(C)C)CC4)cc3c2C(C)C)cc(C)n1 [Example 236, N-(3,3-dimethylbutyl)-2-(4-(2-(2,6-dimethylpyridin-4-yl)-3-isopropyl-1H-indol-5-yl)piperidin-1-yl)acetamide] | 46.5 nM | 2090 nM | 67.2 nM | – | – | – | – | –
14 | CNC(=O)CN1CCC(c2ccc3[nH]c(-c4ccnc(C)c4)c(C(C)C)c3c2)CC1 [Example 513] | 13.5 nM | 2260 nM | 9.8 nM | – | – | – | – | –

Continued, values first:

Row | IC50 (human TLR7; [1]) | IC50 (human TLR9; [2]) | IC50 (human TLR8; [3]) | IC50 (human TLR7; [4]) | IC50 (human TLR9; [5]) | IC50 (human TLR8; [6]) | IC50 (human TLR9; TLR9 IC50, HEK-Blue cells overexpressing human TLR9, ODN2006 5 nM) | IC50 (human TLR8; TLR8 IC50, HEK-Blue cells overexpressing human TLR8, R848 15.9 μM) | SMILES
15 | 6.2 nM | 1020 nM | 25.8 nM | – | – | – | – | – | Cc1cc(-c2[nH]c3ccc(C4CCN(CC(=O)NC(C)(C)C)CC4)cc3c2C(C)C)cc(C)n1 [Example 217, N-(tert-butyl)-2-(4-(2-(2,6-dimethylpyridin-4-yl)-3-isopropyl-1H-indol-5-yl)piperidin-1-yl)acetamide]
16 | 3.7 nM | 1160 nM | 10.7 nM | – | – | – | – | – | Cc1cc(-c2[nH]c3ccc(C4CCN(CC(=O)NCC5CC5)CC4)cc3c2C(C)C)cc(C)n1 [Example 223, N-(cyclopropylmethyl)-2-(4-(2-(2,6-dimethylpyridin-4-yl)-3-isopropyl-1H-indol-5-yl)piperidin-1-yl)acetamide]
17 | 7.9 nM | 5100 nM | 101 nM | – | – | – | – | – | Cc1cc(-c2[nH]c3ccc(C4CCN(C(=O)C5(N(C)C)CC5)CC4)cc3c2C(C)C)cc(C)n1 [Example 172, (1-(dimethylamino)cyclopropyl)(4-(2-(2,6-dimethylpyridin-4-yl)-3-isopropyl-1H-indol-5-yl)piperidin-1-yl)methanone]
18 | 7.8 nM | 572 nM | 7.9 nM | – | – | – | – | – | Cc1cc(-c2[nH]c3ccc(C4CCN(C5CCOCC5)CC4)cc3c2C(C)C)cc(C)n1 [Example 450, 2-(2,6-dimethylpyridin-4-yl)-3-isopropyl-5-(1-(tetrahydro-2H-pyran-4-yl)piperidin-4-yl)-1H-indole]
19 | 4.6 nM | – | – | – | – | – | 234 nM | 2.4 nM | Cc1cc(-c2[nH]c3ccc(C4CCN(Cc5cccnc5)CC4)cc3c2C(C)C)cc(C)n1 [Example 433, 2-(2,6-dimethylpyridin-4-yl)-3-isopropyl-5-(1-(pyridin-3-ylmethyl)piperidin-4-yl)-1H-indole]
20 | 15.6 nM | 3300 nM | 55.1 nM | – | – | – | – | – | COc1cc(-c2[nH]c3ccc(C4CCN(C)CC4)cc3c2C(C)C)ccn1 [Example 638, 3-isopropyl-2-(2-methoxypyridin-4-yl)-5-(1-methylpiperidin-4-yl)-1H-indole]
21 | 8.9 nM | 30800 nM | 104 nM | – | – | – | – | – | Cc1cc(-c2[nH]c3ccc(C4CCN(C(=O)C5CCOCC5)CC4)cc3c2C(C)C)cc(C)n1 [Example 198, (4-(2-(2,6-dimethylpyridin-4-yl)-3-isopropyl-1H-indol-5-yl)piperidin-1-yl)(tetrahydro-2H-pyran-4-yl)methanone]
22 | 7.3 nM | 2920 nM | 3.5 nM | – | – | – | – | – | Cc1cc(-c2[nH]c3ccc(C4CCN(C5CCCOC5)CC4)cc3c2C(C)C)c(F)cn1 (stereo not drawn) [Example 727, 2-(5-fluoro-2-methylpyridin-4-yl)-3-isopropyl-5-(1-(tetrahydro-2H-pyran-3-yl)piperidin-4-yl)-1H-indole]
23 | 7.1 nM | 722 nM | 5.7 nM | – | – | – | – | – | Cc1cc(-c2[nH]c3ccc(C4CCN(C(=O)CCN(C)C)CC4)cc3c2C(C)C)ccn1 [Example 578, 3-(dimethylamino)-1-(4-(3-isopropyl-2-(2-methylpyridin-4-yl)-1H-indol-5-yl)piperidin-1-yl)propan-1-one]
24 | 5.2 nM | 396 nM | 4.5 nM | – | – | – | – | – | COC(C)CN1CCC(c2ccc3[nH]c(-c4cc(C)nc(C)c4)c(C(C)C)c3c2)CC1 (stereo not drawn) [Example 332, 2-(2,6-dimethylpyridin-4-yl)-3-isopropyl-5-(1-(2-methoxypropyl)piperidin-4-yl)-1H-indole]
25 | 7.3 nM | 53100 nM | 71.6 nM | – | – | – | – | – | Cc1cc(-c2[nH]c3ccc(C4CCN(C(=O)CNS(C)(=O)=O)CC4)cc3c2C(C)C)cc(C)n1 [Example 150, N-(2-(4-(2-(2,6-dimethylpyridin-4-yl)-3-isopropyl-1H-indol-5-yl)piperidin-1-yl)-2-oxoethyl) methanesulfonamide]
26 | 1.2 nM | 4010 nM | 6.1 nM | – | – | – | – | – | CNCC(=O)N1CCC(c2ccc3[nH]c(-c4cc(C)nc(C)c4F)c(C(C)C)c3c2)CC1 [Example 622, 1-(4-(2-(3-fluoro-2,6-dimethylpyridin-4-yl)-3-isopropyl-1H-indol-5-yl)piperidin-1-yl)-2-(methylamino)ethan-1-one]
27 | 3.3 nM | 122 nM | 9.2 nM | – | – | – | – | – | Cc1cc(-c2[nH]c3ccc(C4CCNCC4)cc3c2C2CC2)cc(C)n1 [Example 93, 3-cyclopropyl-2-(2,6-dimethylpyridin-4-yl)-5-(piperidin-4-yl)-1H-indole]
28 | 2.6 nM | 663 nM | 5.3 nM | – | – | – | – | – | CCN(C)C(=O)CN1CCC(c2ccc3[nH]c(-c4cc(C)nc(C)c4)c(C(C)C)c3c2)CC1 [Example 246, 2-(4-(2-(2,6-dimethylpyridin-4-yl)-3-isopropyl-1H-indol-5-yl)piperidin-1-yl)-N-ethyl-N-methylacetamide]
